From US20200010482A1, “INHIBITORS OF BETA SECRETASE” (Janssen Pharmaceutica NV, priority 2017, published 2020)

Experiments:
[1] = target: T1, β-secretase II (BACE2) (Homo sapiens, UniProt Q9Y5Z0); assay: Biochemical assay, automated (CyclOps), BACE2; settings: automated CyclOps bioassay
T1 sequence (Q9Y5Z0 63-518): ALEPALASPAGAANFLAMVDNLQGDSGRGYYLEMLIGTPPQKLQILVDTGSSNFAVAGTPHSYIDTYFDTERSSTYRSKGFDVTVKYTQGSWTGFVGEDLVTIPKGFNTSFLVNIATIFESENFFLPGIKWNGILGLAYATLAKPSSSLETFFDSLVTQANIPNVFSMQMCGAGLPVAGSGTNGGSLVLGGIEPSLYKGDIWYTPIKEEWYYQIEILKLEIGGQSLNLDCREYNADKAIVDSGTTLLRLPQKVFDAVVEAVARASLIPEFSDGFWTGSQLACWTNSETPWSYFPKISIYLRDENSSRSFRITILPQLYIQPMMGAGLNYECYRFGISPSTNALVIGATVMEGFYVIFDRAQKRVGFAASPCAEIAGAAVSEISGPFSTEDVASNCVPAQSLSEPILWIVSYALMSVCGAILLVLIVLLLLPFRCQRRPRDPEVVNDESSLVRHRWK
Procedure: (§1) Unless otherwise indicated all biochemicals were purchased from Sigma-Aldrich Chemical Company, Poole, Dorset, U.K. and non-aqueous solvents, of analytical or higher grade, were purchased from ThermoFisher Scientific, Loughborough, U.K. MilliQ water (Elix 5 & MilliQ Gradient; Merck Millipore) was used as the base aqueous solvent to make up the biological buffers. Base assay buffer was prepared by adding a 50 mM solution of citric acid (1.00244; Merck Biosciences) to stirring solution of 50 mM trisodium citrate (1.06448; Merck Biosciences) until a final pH of 5.0 was achieved. […] All assays were routinely carried out in 384-well assay plates (Costar 4514; Corning Life Sciences) and incubated at 37±1° C. for 60 min. prior to reading the endpoint fluorescence intensity. The (7-methoxyl coumarin-4-yl)acetic acid based substrate β-secretase substrate VI (M2465; Bachem) was prepared as a 1 mM stock in 100% DMSO (D/4121/PB08; ThermoFisher). Assay buffer was prepared by adding DMSO to base buffer to a final concentration of 1% (vol./vol.). β-secretase I (18.64 μM; “BACE1”) and β-secretase II (4.65 μM; “BACE2”) were obtained from Janssen Pharmaceutica, Beerse, Belgium and were stored as frozen aliquots (˜20 μl) and thawed as required.
(§2) Typically 12.5 μl of assay buffer was dispensed to rows B to P of the assay plate. To row A was added 18.75 μl of test compound diluted appropriately in assay buffer. A 6.25 μl aliquot of sample was transferred from row A to row B and the sample mixed three times by pipette. The process was repeated down the plate and 6.25 μl of solution discarded at row N post-mix. Rows O and P were designated as the positive and negative controls. To row P was added 6.25 μl base buffer. To rows A to O was added 6.25 μl enzyme (freshly prepared 40 nM BACE1 or 40 nM BACE2) diluted in base buffer. To initiate the assay 6.25 μl of freshly prepared 80 μM substrate, made up by diluting the 1 mM in 100% DMSO solution into HPLC grade water (Optima W6-212; ThermoFisher), was added to all the wells. The assay plate was covered and incubated at 37±1° C. for 60 min. The fluorescence intensity of the wells was read at 360/405 nm (excitation/emission) utilising a nine reads per well protocol (50 ms integration; density of 3, 0.25 mm spacing; SpectraMAX Paradigm plate reader; TUNE cartridge; SoftMax Pro v 6.3 software; Molecular Devices UK Ltd., Wokingham, Berkshire, UK) and outputting the median value of the nine reads as a text file. Data analysis was carried out using Prism software v 6.3 (GraphPad Inc., San Diego, Calif., USA) using the non-linear regression analysis models supplied by the vendor. For IC50 determinations the four parameter logistic variable slope model was used to fit the raw fluorescence intensity data with the ‘bottom’ fixed to the negative control.
(§3) The CyclOps bioassay module consisted of a fraction collection station, a reagent station, liquid handling robotics, plate store and an integrated plate reader (SpectraMAX Paradigm, TUNE cartridge, SoftMax Pro v 6.3; Molecular Devices). The fraction collection station composed of a 384 well collection plate (P-384-240SQ-C; Axygen, Union City, Calif., USA) mounted on a H-portal carriage (Festo AG & Co. KG, Esslingen, Germany), a syringe drive and a two-way six port injection valve fitted with a 200 μl loop (VICI AG International, Schenkon Switzerland). The output of the injection valve was addressable to all the positions of a 384 well collection plate. The reagent station consisted of hydraulically cooled (10-12° C.) aluminium segments; each manufactured to house a SBS microtiter plate footprint. Independent addressable reagent stations were housed within these sections. Where required, custom aluminium housings were used to accommodate standard laboratory plastic ware (e.g. Eppendorf tubes, Falcon tubes, etc.). As and when required the reagent reservoirs were covered and the lids contained holes through which the Teflon-coated probe could access solutions. […]

[2] = target: β-secretase I (BACE1) (Homo sapiens, UniProt P56817); assay: Biochemical assay, automated (CyclOps), BACE1; settings: automated CyclOps bioassay
Procedure: as §1, §2, §3

Chain of β-secretase I (BACE1) (P56817 46-501): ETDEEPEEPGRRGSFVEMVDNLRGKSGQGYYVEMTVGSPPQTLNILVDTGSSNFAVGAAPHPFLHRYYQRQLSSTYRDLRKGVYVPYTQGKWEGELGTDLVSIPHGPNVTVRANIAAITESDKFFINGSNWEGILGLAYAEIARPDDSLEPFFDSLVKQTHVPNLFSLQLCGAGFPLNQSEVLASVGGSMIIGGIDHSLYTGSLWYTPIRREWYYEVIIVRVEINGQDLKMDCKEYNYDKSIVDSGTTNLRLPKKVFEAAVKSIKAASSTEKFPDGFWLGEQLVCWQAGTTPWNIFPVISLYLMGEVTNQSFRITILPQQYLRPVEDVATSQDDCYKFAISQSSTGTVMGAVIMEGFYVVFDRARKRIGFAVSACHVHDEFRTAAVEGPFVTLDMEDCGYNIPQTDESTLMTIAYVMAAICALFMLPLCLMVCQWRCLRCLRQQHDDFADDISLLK

Row | SMILES | AUTOMATED ASSAY BACE2 pIC50 [1] | AUTOMATED ASSAY BACE1 pIC50 [2] | IC50 ([1]; read-out: AUTOMATED ASSAY BACE2 pIC50 (converted)) [nM] | IC50 ([2]; read-out: AUTOMATED ASSAY BACE1 pIC50 (converted)) [nM]
1 | COc1ncc(-c2ccccc2)c2c1C[C@]1(c3cc(OCc4ccccc4)ccc3F)N=C(N)SC[C@@H]1C2 [Compound 138] |  |  | 32.4 | 61.7
2 | COc1ncc(/C=C/c2ccc(F)cc2)c2c1C[C@]1(c3ccc(F)cc3F)N=C(N)SC[C@@H]1C2 [Compound 48] | 7.63 | 7.76 |  | 
3 | COc1ncc(-c2csc3ccccc23)c2c1C[C@]1(c3ccc(F)cc3F)N=C(N)SC[C@@H]1C2 [Compound 133] | 7.67 | 8.6 |  | 
4 | COc1ncc(-c2ccc(F)cc2C)c2c1C[C@]1(c3ccc(F)cc3F)N=C(N)SC[C@@H]1C2 [Compound 58] | 6.99 | 7.77 |  | 
5 | COc1ncc(-c2coc3ccccc23)c2c1C[C@]1(c3ccc(F)cc3F)N=C(N)SC[C@@H]1C2 [Compound 130] | 7.03 | 7.4 |  | 
6 | COc1ncc(-c2cccc3cnccc23)c2c1C[C@]1(c3ccc(F)cc3F)N=C(N)SC[C@@H]1C2 [Compound 132] | 7.16 | 7.82 |  | 
7 | COc1ncc(-c2ccc(Cl)c(C)c2)c2c1C[C@]1(c3ccc(F)cc3F)N=C(N)SC[C@@H]1C2 [Compound 59] | 7.15 | 7.68 |  | 
8 | COc1ncc(-c2cc(F)cc(F)c2)c2c1C[C@]1(c3ccc(F)cc3F)N=C(N)SC[C@@H]1C2 [Compound 54] | 8.42 | 8.54 |  | 
9 | COc1ncc(-c2cccc(C)c2C)c2c1C[C@]1(c3ccc(F)cc3F)N=C(N)SC[C@@H]1C2 [Compound 56] | 7.63 | 8.11 |  | 
10 | COc1ncc(-c2cc(C(F)(F)F)ccc2F)c2c1C[C@]1(c3ccc(F)cc3F)N=C(N)SC[C@@H]1C2 [Compound 51] | 6.83 | 7.34 |  | 
11 | COc1ncc(-c2cccc3cnn(C)c23)c2c1C[C@]1(c3ccc(F)cc3F)N=C(N)SC[C@@H]1C2 [Compound 127] | 5.6 | 6.77 |  | 
12 | COc1ncc(-c2cccc3c2OCCC3)c2c1C[C@]1(c3ccc(F)cc3F)N=C(N)SC[C@@H]1C2 [Compound 128] | 6.19 | 7.01 |  | 
13 | COc1ncc(-c2ccccc2F)c2c1C[C@]1(c3ccc(F)cc3F)N=C(N)SC[C@@H]1C2 [Compound 50] | 7.96 | 8.28 |  | 

Further lines, results first:

Row | AUTOMATED ASSAY BACE2 pIC50 [1] | AUTOMATED ASSAY BACE1 pIC50 [2] | IC50 ([1]; read-out: AUTOMATED ASSAY BACE2 pIC50 (converted)) [nM] | IC50 ([2]; read-out: AUTOMATED ASSAY BACE1 pIC50 (converted)) [nM] | SMILES
14 | 4.78 | 6.43 |  |  | COc1ccc(F)cc1-c1cnc(OC)c2c1C[C@H]1CSC(N)=N[C@@]1(c1cc(OCC3CCOCC3)ccc1F)C2 [Compound 143]
15 | 6.64 | 6.73 |  |  | COc1ncc(-c2c(C)noc2C)c2c1C[C@]1(c3cc(OCc4c(C)noc4C)ccc3F)N=C(N)SC[C@@H]1C2 [Compound 153]
16 | 6.12 | 7.77 |  |  | COc1ncc(-c2c(C)noc2C)c2c1C[C@]1(c3cc(OCC4CCC4)ccc3F)N=C(N)SC[C@@H]1C2 [Compound 155]
17 | 5.65 | 7.52 |  |  | COc1cc(C)c(-c2cnc(OC)c3c2C[C@H]2CSC(N)=N[C@@]2(c2cc(OCC4CCOCC4)ccc2F)C3)cn1 [Compound 152]
18 | 7.88 | 7.51 |  |  | COc1ncc(-c2ccccc2)c2c1C[C@]1(c3cc(OCc4ccc(F)cc4)ccc3F)N=C(N)SC[C@@H]1C2 [Compound 154]
19 | 5.19 | 6 |  |  | COc1ncc(-c2c(C)noc2C)c2c1C[C@]1(c3cc(OCCOC4CCCCC4)ccc3F)N=C(N)SC[C@@H]1C2 [Compound 148]
20 | 5.3 | 6.12 |  |  | COc1ncc(-c2c(C)noc2C)c2c1C[C@]1(c3cc(OCCC4CCCC4)ccc3F)N=C(N)SC[C@@H]1C2 [Compound 150]
21 | 6.64 | 7.7 |  |  | COc1ncc(-c2c(C)noc2C)c2c1C[C@]1(c3cc(OCc4cccc(C#N)c4)ccc3F)N=C(N)SC[C@@H]1C2 [Compound 147]
22 | 7.28 | 8.4 |  |  | COc1ncc(-c2ccccc2C)c2c1C[C@]1(c3cc(OCC4CCC4)ccc3F)N=C(N)SC[C@@H]1C2 [Compound 142]
23 | 5.52 | 6.89 |  |  | COc1cccc(COc2ccc(F)c([C@]34Cc5c(OC)ncc(-c6c(C)noc6C)c5C[C@H]3CSC(N)=N4)c2)c1 [Compound 145]
24 | 5.17 | 5.09 |  |  | COc1ncc(-c2c(C)noc2C)c2c1C[C@]1(c3cc(OCCC4CCCCC4)ccc3F)N=C(N)SC[C@@H]1C2 [Compound 149]
25 | 6.63 | 6.74 |  |  | COc1ncc(-c2c(C)noc2C)c2c1C[C@]1(c3cc(OC4CCOCC4)ccc3F)N=C(N)SC[C@@H]1C2 [Compound 146]
26 | 6.36 | 6.32 |  |  | COc1ncc(-c2ccccc2F)c2c1C[C@]1(c3cc(OCCC#N)ccc3F)N=C(N)SC[C@@H]1C2 [Compound 156]
27 | 4.97 | 5.55 |  |  | COc1ccc(OC)c(-c2cnc(OC)c3c2C[C@H]2CSC(N)=N[C@@]2(c2cc(OCc4ccccc4F)ccc2F)C3)c1 [Compound 139]
28 | 6.43 | 7.42 |  |  | COc1ncc(-c2ccccc2C)c2c1C[C@]1(c3cc(OCCc4c(C)noc4C)ccc3F)N=C(N)SC[C@@H]1C2 [Compound 144]
